Experimental data: patent publication US20050020565A1, “CCK-1 receptor modulators” (priority 2003, published 2005)

Target: T1, CCK-1 receptor (Homo sapiens, UniProt P32238)
T1 construct: expressed in transfected cells; membranes
T1 sequence (P32238 1-428): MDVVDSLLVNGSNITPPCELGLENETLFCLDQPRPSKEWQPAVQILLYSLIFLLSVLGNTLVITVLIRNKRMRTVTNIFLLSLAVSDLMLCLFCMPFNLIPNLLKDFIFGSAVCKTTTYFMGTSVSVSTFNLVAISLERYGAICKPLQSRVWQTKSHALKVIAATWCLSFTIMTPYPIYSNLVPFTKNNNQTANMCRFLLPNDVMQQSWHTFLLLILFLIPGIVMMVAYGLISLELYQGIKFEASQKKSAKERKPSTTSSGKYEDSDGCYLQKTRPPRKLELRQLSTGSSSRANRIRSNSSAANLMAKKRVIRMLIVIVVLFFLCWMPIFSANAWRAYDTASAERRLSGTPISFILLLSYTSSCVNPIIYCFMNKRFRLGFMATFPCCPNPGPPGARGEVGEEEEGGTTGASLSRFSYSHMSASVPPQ
Test: CCK-1 receptor radioligand binding assay ([125I]-BH-CCK-8S displacement, membranes of stably transfected CHO-K1 cells)
Conditions: membranes of CHO-K1 cells stably transfected with CCK-1 receptor, 0.3 μM PD-134,308 present
Protocol: CHO-K1 cells that had undergone-stable transfection with the CCK-1 receptor were grown in DMEM supplemented with L-glutamine (2 mM), penicillin (50 units/mL) and streptomycin (50 μg/mL). Cells were cultured under continuous G418 selection (2 mM) and were harvested using a rubber cell scraper. CHO-K1 cells were sub-cultured a maximum of ten times before being reseeded from the original stocks.
Membranes were prepared from the stably transfected CHO-K1 cells. Frozen cell pellets (−40° C.) were thawed in 14 mL of buffer A (10 mM HEPES, 130 mM NaCl, 4.7 mM KCl, 5 mM MgCl, 1 mM EGTA and 15.4 mg/100 mL bacitracin at pH 7.2), adapted from Harper et al. (Br. J. Pharmacol. (1996) 118, pp 1717-1726). The thawed pellets were homogenized using a Polytron PT-10 (7×1 s). The homogenates were centrifuged for 5 min at 1500 rpm (600×g), and the resulting pellets were discarded. The supernatants were re-centrifuged in order to collect the receptor-membrane pellets (25 min 15,000 rpm; 39,800×g), which were re-suspended in buffer A.
All assays were conducted in 96-well plates (GF/B millipore filter plates) using buffer A, with 0.3 μM PD-134,308, for the dilutions. The CCK-2 receptor ligand was included to eliminate the contribution of this receptor subtype to the binding. For the optimal cell number determination experiments 20 pM [1251]-BH—CCK-8S (50 μL 60 pM solution) was incubated with a range of cell concentrations (2.5×105 to 12.5×10^5 cells/well) in a total volume of 150 μL. Total binding of [1251]-BH—CCK-8S was determined in the presence of 15 μL of buffer A. Non-specific binding of [1 251]-BH—CCK-8S was determined in the presence of 15 μL of 100 μM 2-naphthalenesulphonyl L-aspartyl-(2-phenethyl)amide (2-NAP: see R. A. Hull et al., Br. J. Pharmacol. (1993) 108, pp 734-740), a CCK-1 receptor selective antagonist that is structurally unrelated to the radioligand [1251]-BH—CCK-8S. The assay preparation was incubated for 1 h at 21±3° C., and then the assay was terminated upon rapid filtration of the preparation under reduced pressure. The loaded filters were washed three times using undiluted PBS (100 μL), and then the residues were transferred to 5 mL scintillation tubes. Bound radioactivity was determined using a gamma counter (count time=1 min). From these experiments a cell concentration of 1 pellet in 40 mL of buffer (2.5×10^6 cells/mL) was chosen for use in other assays (below). To validate the radioligand concentration and incubation time for the assay, saturation and kinetic binding studies were also conducted (see M. F. Morton, The Pharmacological Characterization of Cholecystokinin Receptors in the Human Gastrointestinal Tract. PhD Thesis, University of London, 2000). The affinity of novel compounds was estimated by incubating membrane preparations with 15 μL of competing ligand (0.1 pM-1 mM) for 60 min at 21±3° C. The assay was then terminated according to the procedure outlined above.
The pKi values were determined using the equation of Cheng and Prusoff (Biochem. Pharmacol. (1973) 22, pp 3099-3108): [formula]
To circumvent problems associated with computer-assisted data analysis of compounds with low affinity, the data obtained in the current study were weighted according to a method described by Morton (2000). In brief, 100% and 0% specific binding were defined independently using total binding and binding obtained in the presence of a high concentration of the reference antagonist, 2-NAP.

| SMILES | Ki [nM] |
| --- | --- |
| COc1ccc(-n2nc(C[C@H](c3cccc(C)c3)c3nnn[nH]3)cc2-c2ccc(Cl)c(Cl)c2)cc1 [Example 131] | 126 |
| Cc1cccc([C@@H](Cc2cc(-c3ccc4ccccc4c3)n(-c3ccccn3)n2)C(=O)O)c1 [Example 93] | 251 |
| Cc1ccc(-c2cc(CC(C[S+]([O-])c3ncn[nH]3)c3cccc(C)c3)nn2-c2ccc(C)cc2)cc1 (stereo not shown) [Example 136] | 6.31 |
| Cc1ccc(-c2cc(CC(C(=O)O)c3cccc4ccccc34)nn2-c2ccc(Cl)c(Cl)c2)cc1 (stereo not shown) [Example 181] | 15.8 |
| COc1cccc(C(Cc2cc(-c3ccc(C)cc3)n(-c3ccc(C)cc3)n2)C(=O)O)c1 (stereo not shown) [Example 170] | 7.94 |
| Cc1cccc(C(Cc2cc(-c3ccc4ccccc4c3)n(-c3ccccn3)n2)C(=O)O)c1 (stereo not shown) [Example 52] | 10 |
| O=C(O)/C(=C\c1cc(-c2ccc(Cl)c(Cl)c2)n(-c2cc(Cl)ccc2Cl)n1)c1cccc(Cl)c1 [Example 111] | 3.98 |
| Cc1ccc(-c2cc(CC(C(=O)O)c3cccc(C)c3)nn2-c2ccc(C)cc2)cc1 (stereo not shown) [Example 40] | 7.94 |
| Cc1ccc(-c2cc(CC(C(=O)O)c3cccc4ccccc34)nn2Cc2ccccc2)cc1 (stereo not shown) [Example 195] | 10 |
| COc1ccc(-n2nc(CC(C(=O)N(C)C)c3cccc(C)c3)cc2-c2ccc(C)cc2)cc1 (stereo not shown) [Example 66] | 20 |
| Cc1cccc(C(Cc2cc(-c3cccc(Cl)c3)n(C)n2)C(=O)O)c1 (stereo not shown) [Example 303] | 1260 |
| Cc1cccc(C(Cc2cc(-c3cccc4ccccc34)nn2-c2ccccn2)C(=O)O)c1 (stereo not shown) [Example 79] | 126 |
| O=C(O)/C(=C\c1cc(-c2ccc3ccccc3c2)n(-c2cc(Cl)ccc2Cl)n1)c1cccc(Cl)c1 [Example 112] | 3.98 |
| COc1ccc(-n2nc(CC(C(=O)O)c3cccc(Cl)c3)cc2-c2ccc(C)cc2)cc1 (stereo not shown) [Example 7] | 7.94 |
| Cc1cccc(C(Cc2cc(-c3ccc4c(c3)OCO4)nn2CC2CCCCC2)C(=O)O)c1 (stereo not shown) [Example 82] | 1260 |
| Cc1ccc(-c2cc(CC(C(=O)O)c3cccc4ccccc34)nn2-c2ccc(C)cc2)cc1 (stereo not shown) [Example 167] | 12.6 |
| COc1ccc(-c2cc(C[C@@H](C(=O)O)c3cccc(OC)c3)nn2-c2ccc(OC)cc2)cc1 [Example 31] | 1000 |
| Cc1cccc(C(Cc2cc(-c3ccc(Cl)c(Cl)c3)n(-c3ccc(S(C)(=O)=O)cc3)n2)C(=O)O)c1 (stereo not shown) [Example 54] | 39.8 |
| O=C(O)/C(=C/c1cc(-c2ccc3c(c2)OCO3)n(-c2cc(Cl)ccc2Cl)n1)c1cccc(Cl)c1 [Example 123] | 251 |
| COc1ccc(-n2nc(CC(C(=O)O)c3cccc(SC(F)(F)F)c3)cc2-c2ccc(Cl)c(Cl)c2)cc1 (stereo not shown) [Example 334] | 100 |
| COc1ccc(-n2nc(CC(C(=O)O)c3cccc(C)c3)cc2-c2ccc(C)cc2)cc1 (stereo not shown) [Example 148] | 15.8 |
| COc1ccc(-n2nc(/C=C(/C(=O)O)c3cccc(C)c3)cc2-c2ccc(Cl)c(Cl)c2)cc1 [Example 75] | 79.4 |
| Cc1cccc([C@H](Cc2cc(-c3ccc(Cl)c(Cl)c3)n(-c3ccc(O)cc3)n2)C(=O)O)c1 [Example 328] | 20 |
| Cc1ccc(-n2nc(CC(C(=O)O)c3cccc(C)c3)cc2-c2ccc(N3CCCC3=O)cc2)cc1 (stereo not shown) [Example 104] | 39.8 |
| Cc1cccc(C(Cc2cc(-c3ccc4ccccc4c3)[nH]n2)C(=O)O)c1 (stereo not shown) [Example 47] | 200 |
| COc1ccc(-n2nc(CC(C(=O)O)c3coc4ccccc34)cc2-c2ccc(Cl)c(Cl)c2)cc1 (stereo not shown) [Example 261] | 12.6 |

| SMILES | Ki [nM] |
| --- | --- |
| Cc1cccc(C(Cc2cc(-c3cccnc3)n(-c3ccc(Cl)cc3Cl)n2)C(=O)O)c1 (stereo not shown) [Example 56] | 50.1 |
| COc1ccc(-n2nc(/C=C(/C(=O)O)c3ccc(C)cc3)cc2-c2ccc(Cl)c(Cl)c2)cc1 [Example 363] | 794 |
| COc1ccc(-n2nc(CC(C(=O)O)c3cccc(F)c3F)cc2-c2ccc(Cl)c(Cl)c2)cc1 (stereo not shown) [Example 18] | 39.8 |
| Cc1ccc(-c2cc(CC(C(=O)O)c3ccc4c(c3)OCO4)nn2-c2ccc(Cl)c(Cl)c2)cc1 (stereo not shown) [Example 189] | 39.8 |
| Cc1cccc(C(Cc2cc(-c3ccc4ccccc4c3)nn2Cc2ccncc2)C(=O)O)c1 (stereo not shown) [Example 88] | 39.8 |
| COc1ccc(-n2nc(C[C@H](C(=O)O)c3cccc4ccccc34)cc2-c2ccc3c(c2)OCO3)cc1 [Example 29] | 39.8 |
| COc1cc(-c2cc(CC(C(=O)O)c3cccc(C)c3)nn2-c2ccc(C)cc2)ccc1C (stereo not shown) [Example 60] | 5.01 |
| COc1ccc(-n2nc(CC(C(=O)O)c3cccc(Cl)c3)cc2-c2ccc(Cl)cc2)cc1 (stereo not shown) [Example 37] | 20 |
| Cc1cccc(C(Cc2cc(-c3ccc4ccccc4c3)nn2Cc2ccccc2)C(=O)O)c1 (stereo not shown) [Example 83] | 63.1 |
| Cc1ccc(-c2cc(CC(C(=O)O)c3cccc(I)c3)nn2-c2ccc(Cl)c(Cl)c2)cc1 (stereo not shown) [Example 24] | 20 |
| Cc1cccc([C@H](Cc2cc(-c3ccc4ccccc4c3)n(-c3ccccn3)n2)C(=O)O)c1 [Example 92] | 6.31 |
| Cc1cccc(C(Cc2cc(-c3ccc(OCc4ccccc4)cc3)n(-c3ccc(OC(F)(F)F)cc3)n2)C(=O)O)c1 (stereo not shown) [Example 58] | 501 |
| COc1ccc(-n2nc(CC(C(=O)O)c3c[nH]c4ccccc34)cc2-c2ccc(C)cc2)cc1 (stereo not shown) [Example 71] | 25.1 |
| COc1ccc(-n2nc(CC(C(=O)O)c3cccnc3)cc2-c2ccc(Cl)cc2)cc1 (stereo not shown) [Example 208] | 3160 |
| Cc1cccc(C(Cc2cc(-c3ccc(N(C)C)cc3)n(-c3ccc(OC(F)(F)F)cc3)n2)C(=O)O)c1 (stereo not shown) [Example 287] | 20 |
| COc1ccc(-n2nc(C[C@H](C(=O)O)c3cccc(C)c3)cc2-c2ccc(Cl)c(Cl)c2)cc1 [Example 1] | 10 |
| Cc1ccc(-c2cc(CC(CSc3ncn[nH]3)c3cccc(C)c3)nn2-c2ccc(C)cc2)cc1 (stereo not shown) [Example 335] | 31.6 |
| Cc1cccc(C(Cc2cc(-c3ccc4ccccc4c3)n(-c3cccc[n+]3[O-])n2)C(=O)O)c1 (stereo not shown) [Example 105] | 316 |
| COc1ccc(-n2nc(CC(C(=O)O)c3coc4ccccc34)cc2-c2ccc3c(c2)OCO3)cc1 (stereo not shown) [Example 262] | 12.6 |
| COc1cccc(C(Cc2cc(-c3ccc(C)cc3)n(-c3ccc(Cl)cc3)n2)C(=O)O)c1 (stereo not shown) [Example 157] | 12.6 |
| COc1ccc(-n2nc(C[C@@H](c3cccc(C)c3)c3nnn[nH]3)cc2-c2ccc(Cl)c(Cl)c2)cc1 [Example 129] | 15.8 |
| O=C(O)/C(=C\c1cc(-c2ccc3c(c2)OCO3)n(-c2cc(Cl)ccc2Cl)n1)c1cccc(Cl)c1 [Example 122] | 1.58 |
| COc1ccc(-n2nc(C[C@@H](C(=O)O)c3cccc(C)c3)cc2-c2ccc(Cl)c(Cl)c2)cc1 [Example 3] | 251 |
| COc1ccc(-n2nc(CC(C(=O)O)c3cccc(Cl)c3)cc2-c2ccc3c(c2)OCO3)cc1 (stereo not shown) [Example 221] | 15.8 |
| Cc1ccc(-c2cc(CC(C(=O)O)c3cccc(Cl)c3)nn2-c2ccc(C)cc2)cc1 (stereo not shown) [Example 168] | 7.94 |
| Cc1ccc(-n2nc(CC(C(=O)O)c3cccc(C)c3)cc2-c2ccc(N(C)C)cc2)cc1 (stereo not shown) [Example 86] | 3.98 |
